Reference: publication PMC7819857, “Identification of Inhibitors of Integrin Cytoplasmic Domain Interactions With Syk” (Frontiers in Immunology, 2021)
Where two headings read alike, the source gives them in different places.

What was measured:
[1] = target: T1, integrin β3 cytoplasmic domain (bβ3(fl)) : GST-Syk(6-370) (Homo sapiens, UniProt P43405); assay: ELISA-based orthogonal assay, bβ3(fl) and GST-Syk(6-370); format: binding
T1 construct: the tandem SH2 domains of Syk (residues 6-370); made in house; host or cells: E. coli BL21(DE3)
Protocol: For ELISA-based assays, 96-well plates (Costar cat# 9018) were coated overnight at 4°C with neutravidin (Thermo Scientific, cat#31050) in 10 mM Tris pH 9 and 100 mM NaCl. After overnight incubation, non-specific binding sites were blocked with bovine serum albumin (BSA) (2% w/v) for at least 1 h at room temperature. Plates were washed in 25 mM HEPES pH 7.5, 100 mM NaCl, 0.1% BSA, and 0.01% TritonX-100 (assay buffer), and indicated biotinylated β3 peptide was incubated for at least 2 h at room temperature (0.5–3 ug/ml in di-H2O). After washing in the assay buffer, GST-fusion proteins were added (50 ul, indicated concentrations) and incubated at room temperature for 1 h in assay buffer. For compound inhibition studies, compounds were added to GST-fusion proteins (at indicated concentrations) before they were added to plates. Plates were washed 3× with assay buffer (200 ul) to remove unbound GST-fusion protein. Horseradish peroxidase (HRP)-conjugated anti-GST antibody [Polyclonal anti-GST(Z-5)-HRP, Santa Cruz Biotechnology, cat #sc-459 0.2 ug/ml] was incubated in washed plates in 50 ul assay buffer for 45 min at room temperature. After washing, the signal was generated with 1-step Ultra TMB-ELISA (Thermo Scientific, cat#34028), stopped with 2 N H2SO4, and read on a plate reader (SPARK 10M/Tecan) at 450 nm.
Figure 3 Dose-response curves in primary and orthogonal screens. (A) AlphaScreen dose-response curves. […] Data are expressed as mean fluorescence (Fl520) ± range from duplicates, and one representative experiment of “n” performed is shown. (B) Orthogonal ELISA-based dose-response assays. […] Data are expressed as mean abs450 ± SEM from triplicate determinations, and one of three representative experiments is shown. (C) Ceftazidime inhibition of β3 peptide binding to Syk from THP-1 whole cell lysate. THP-1 cell lysate (100 ug) was treated with or without ceftazidime (Ctaz) before incubation with β3-coated avidin-agarose beads, and bound Syk was measured by western blot (example shown in inset). Blank beads served as a negative control. […]

GST-free Syk(6-370) = target: T2, GST-free Syk(6-370) (Homo sapiens, UniProt P43405); assay: Thermal denaturation assay (SYPRO orange); format: binding; details: Syk(6-370) 2 µM, dose-dependent
T2 construct: Syk 6-370 (GST tag removed by thrombin cleavage) was used; GST (N, cleaved yes); made in house; host or cells: E. coli BL21(DE3)
Protocol: In this assay, Syk 6-370 (GST tag removed by thrombin cleavage) was used. Thrombin (GE Healthcare cat#270846, reconstituted in PBS to 1 unit/ul) was applied to the GST-Syk 6-370 protein bound to the Glutathione Sepharose beads. The GST-tag was cleaved with 20 unit/1 ml of protein-GST beads in PBS overnight at room temperature. After chromatography and additional cleaning on GST-beads, the purified protein was verified by SDS-PAGE. For thermal denaturation experiments, GST-free Syk(6-370) was used at a final concentration of 2 µM and SYPRO orange (Thermo Scientific, cat# S6650) at a 0.08% (v/v) dilution (from a 5000x stock). Compounds were used at indicated concentrations. Numerous reaction buffers were initially screened, and a final buffer containing 25 mM HEPES (pH 7.5) with 100 mM NaCl was used. Assays were performed in 20 µl volumes, in triplicate, in 384-well plates (Applied Biosystems MicroAmp 384-well clear optical reaction plate, catalogue #4483285). Plates were sealed with Applied Biosystems Optical Adhesive Cover (cat#4360954) and centrifuged for 2 min at 800 × g at room temperature. Thermal denaturation was measured on a Quant Studio 6 Flex Real-time PCR system (Applied Biosystems). […]

[2] = target: T3, integrin β3 cytoplasmic domain : tandem SH2 domains of Syk (GST-Syk(6-370)) (Homo sapiens, UniProt P43405); assay: AlphaScreen of integrin β3 cytoplasmic domain peptide binding to GST-Syk(6-370); details: for fold difference in inhibition, primary screen over false-positive counter screen (hit criterion): re-sourced compounds, counter screen with biotinylated GST; for inhibition of fluorescent signal in the primary screen, re-sourced compounds (hit criterion): re-sourced from a separate commercial source, 25 uM in text, 30 uM in legend of Figure 2C
T3 construct: the tandem SH2 domains of Syk (residues 6-370); made in house; host or cells: E. coli BL21(DE3)
Protocol: The following HTS assay was developed to identify antagonists of the interaction between the integrin β3 cytoplasmic domain and the non-receptor tyrosine kinase Syk. […] ( Figure 1E ). Background signals in this assay were determined by omitting the integrin β3 peptide. Specific assay conditions are described in Table 1 . […] Then, either dimethyl sulfoxide control or compound was added, followed by biotinylated β3 peptide, and avidin-coated AlphaScreen donor beads. After a 4-h incubation period at room temperature (while protected from light), assays plates were read on an Infinite M1000 (Tecan) multiplate reader (Ex. 680/30; Em. 570/100).
Figure 3 Dose-response curves in primary and orthogonal screens. (A) AlphaScreen dose-response curves. […] Data are expressed as mean fluorescence (Fl520) ± range from duplicates, and one representative experiment of “n” performed is shown. (B) Orthogonal ELISA-based dose-response assays. […] Data are expressed as mean abs450 ± SEM from triplicate determinations, and one of three representative experiments is shown. (C) Ceftazidime inhibition of β3 peptide binding to Syk from THP-1 whole cell lysate. THP-1 cell lysate (100 ug) was treated with or without ceftazidime (Ctaz) before incubation with β3-coated avidin-agarose beads, and bound Syk was measured by western blot (example shown in inset). Blank beads served as a negative control. Equal β3 peptide loading was verified by probing blots with avidin-HRP (not shown).

[3] = Solubility under assay conditions; format: physicochemical
[4] = Figure 3A: biotinylated-b3(sh) peptide 30 nM, GST-Syk(6-370) 0.3 nM, read-out: IC50, AlphaScreen dose-response

Compound | inhibitory activity in ELISA-based orthogonal assay [1] | effect on melting temperature (Tm) of Syk(6-370) (GST-free Syk(6-370)) | IC50 [2, 4] [µM] | IC50 ([2]; abstract summary for both compounds, read-out: IC50 range, inhibition of integrin β-subunit cytoplasmic domain binding to the tandem SH2 domains of Syk) [µM] | IC50 ([2]; as restated in the Discussion, read-out: IC50 in AlphaScreen assays) [µM] | IC50 ([2]; biotinylated-b3(sh) peptide 30 nM, GST-Syk(6-370) 0.3 nM, read-out: value printed in Figure 3A, AlphaScreen dose-response (no measure name)) [µM] | fold difference in inhibition, primary screen over false-positive counter screen (hit criterion) [2] | inhibition of fluorescent signal in the primary screen, re-sourced compounds (hit criterion) [2] | solubility for retest in primary and false-positive screens ([3]; re-sourced hit retest, 30 uM) | solubility under ELISA assay conditions ([3]; ELISA assay buffer, highest doses tested)
NC(=O)c1cc[n+](CC2=C(C(=O)O)N3C(=O)[C@@H](NC(=O)[C@@H](c4ccccc4)S(=O)(=O)[O-])[C@H]3SC2)cc1 [cefsulodin] | remained active | decreased | 4.9 ± 4.2 | 1.02 to 4.9 | 4.2 | 4.89 ± 4.2 | greater than 3 fold | greater than 50% |  | 
CC[C@@]1(O)C(=O)OCc2c1cc1n(c2=O)Cc2cc3c(CN(C)C)c(O)ccc3nc2-1 [topotecan] |  |  |  |  |  |  |  |  | lack of solubility | 
C=C1c2cccc(O)c2C(=O)C2=C(O)[C@]3(O)C(=O)C(C(N)=O)=C(O)[C@@H](N(C)C)[C@@H]3[C@@H](O)[C@H]12 [methacycline] |  |  | 22.4 ± 4.1 |  |  |  | greater than 3 fold | greater than 50% |  | not soluble at the highest doses tested
neomycin sulfate | did not demonstrate inhibitory activity |  | 0.038 ± 0.019 |  |  |  | greater than 3 fold | greater than 50% |  | 
